Measured values reported in US20240228493A1, “LRRK2 INHIBITORS AND USES THEREOF” (NEURON23, ICN., priority 2022, published 2024).

What was measured:
human hepatocyte = test: Human hepatocyte stability, predicted hepatic clearance (h-Hept CL predict); format: in vitro ADME; details: human hepatocytes, 0.5×10^6 cells/mL, 1 μM, values without asterisk
Method: The compounds disclosed herein were tested in vitro on human hepatocyte for in vitro h-Hept CL predict according to the following procedures. • 1. Compound sock solutions were prepared by dissolving test compound and positive control in dimethyl sulfoxide (DMSO) at a concentration of 10 mM. Stock solutions were then diluted to 100 μM solutions by combining 198 μL of 50% acetonitrile/50% water with 2 μL of the 10 mM stock in separate conical tubes. • 2. Cryopreserved hepatocytes were prepared as follows: Incubation medium (William's E Medium supplemented with GlutaMAX) and hepatocyte thawing medium were placed in a 37° C. water bath and allowed to warm for at least 15 minutes prior to use. Cryopreserved hepatocytes were removed from storage, ensuring that vials remained at cryogenic temperatures until thawed. Cells were thawed by placing the vials in a 37° C. water bath and gently shaking the vials for 2 minutes. After thawing was completed, vials were sprayed with 70% ethanol and transferred to a biosafety cabinet. Hepatocytes were transferred into 50 mL conical tube containing thawing medium using wide-bore pipette tips. Tubes were placed into a centrifuge and spun at 100 g for 10 minutes. Then thawing medium was aspirated and hepatocytes were resuspended in enough incubation medium to yield ˜1.5×10^6 cells/mL. Cells were counted using acridine orange and propidium iodide (AO/PI) staining, and the viable cell density was determined. Cells were diluted with incubation medium to a working cell density of 0.5×10^6 viable cells/mL. • 3. To determine hepatocyte stability, 198 μL of hepatocytes were transferred into each well of a 96-well non-coated plate. Plates were placed in an incubator to allow the hepatocytes to warm for 10 minutes. • 4. The reaction was started by transferring 2 μL of the 100 μM test compound or positive control solution into respective wells of the 96-well non-coated plates. Plates were returned to the incubator until 25 μL aliquots of well contents were sampled at time points of 0, 15, 30, 60, 90 and 120 minutes. The aliquots were then mixed with 6 volumes (150 μL) of acetonitrile containing internal standard, IS (100 nM alprazolam, 200 nM caffeine and 100 nM tolbutamide) to terminate the reaction and vortexed for 5 minutes. After centrifuging the samples for 45 minutes at 3,220 g, aliquots of 100 μL of the supernatant were taken and diluted with 100 μL of ultra-pure water. The mixture was used for LC/MS/MS analysis. All incubations were performed in duplicate.
All calculations were carried out using Microsoft Excel. Peak area ratios (PAR) were determined from extracted ion chromatograms. The in vitro half-life (t1/2) of parent compound was determined by regression analysis of the percent parent disappearance vs. time curve as follows:
Conversion of the in vitro t1/2 (in minutes) into the in vitro intrinsic clearance (in vitro CLint, in μL/min/1×10^6 cells) was done using the following equation (mean of duplicate determinations): […]
The scaled-up intrinsic clearance (CLint, mL/min/kg), predicted hepatic clearance (CLH, mL/min/kg) and hepatic extraction ratio (ER) were calculated using the following equations:
CLint=(0.693/t1/2)*(1/(hepatocyte concentration (0.5*10^6 cells/mL)))*scaling factors (Table (A) Appendix Table 1)
CLHept-predict=(QH*Scaled-up CLint*fub)/(QH+Scaled-up CLint*fub)
ER=CLH/QH • Where: • V=incubation volume (0.2 mL) • N=number of hepatocytes per well (0.1*10^6 cells) • QH=hepatic blood flow (mL/min/kg) (Table (A) Appendix Table 1) • fub=fraction of unbound drug in plasma, assumed to be 1

[1] = target: T1, wt human LRRK2, catalytic site (Homo sapiens, UniProt Q5S007); test: TR-FRET LanthaScreen Tb Kinase Activity Assay, LRRK2 inhibition; format: biochemical; details: 2 nM wt human LRRK2, 400 nM peptide, 38 μM ATP
T1 construct: wt human LRRK2, catalytic site, catalytic site (ThermoFisher/USA); purchased ThermoFisher
Method: The compounds disclosed herein were tested for their inhibitory effect on LRRK2 kinase according to the following procedures.
The protocol for basic TR-FRET LanthaScreen Tb Kinase Activity Assay inhibitor studies were as follows. LanthaScreen Kinase Activity Assays (ThermoFisher/USA) to evaluate inhibitors were performed by addition of 100 nL of test compound in corresponding DMSO dilutions/5 μL of kinase/fluorescein-ERM (LRRKtide) peptide mixture, Compound & kinase were pre-incubated for 15 minutes, then 5 μl of ATP into 384 well small volume plates. After incubation for 120 minutes at room temperature, the detection reagents containing Tb-anti-pLRRKtide antibody were added to monitor phosphorylation level of peptide. Then, after 60 min minutes incubation at room temperature plates were read in Envision. Data analysis of emission ratios was according to LanthaScreen Tb Kinase Activity Assay protocol.
Kinase and assay components were adjusted to final concentrations according to the kit protocol. For LRRK2: 2 nM wt human LRRK2, catalytic site, catalytic site (ThermoFisher/USA), 400 nM peptide, 38 μM ATP in 1× Kinase Buffer A. […]
Kinase and assay components were adjusted to final concentrations according to the kit protocol.

Caco-2 cells = test: Caco-2 bidirectional permeability; format: in vitro ADME; details: for Caco-2 ER: Efflux Ratio=Papp(BA)/Papp(AB); for Caco-2 A2B (10^−6 cm/s): apical to basolateral; for Caco-2 A2B (10^−6 cm/s) / Caco-2 B2A (10^−6 cm/s): 2 hours, pH 7.4; for Caco-2 B2A (10^−6 cm/s): basolateral to apical
Method: The compounds disclosed herein were tested in vitro on CaCo2 cell penetration according to the following procedures.
Caco-2 cells purchased from ATCC were seeded onto […] (PET) in 96-well Corning Insert plates at 1×10^5 cells/cm^2. The media were refreshed every 4 to 5 days until the 21st to 28th day for confluent cell monolayer formation.
Experiments were run in duplicate using a HBSS transport buffer containing 10 mM HEPES at pH 7.4. The test article TEST COMPOUND was tested bi-directionally at […] concentrations, the control compound digoxin was tested bi-directionally at 10 μM, and nadolol and metoprolol were tested at 2.0 μM in the A to B direction. Final DMSO concentrations were adjusted to less than 1%. The plates were incubated for 2 hours in a CO2 incubator at 37±1° C. with 5% CO2 at saturated humidity without shaking. Following incubation, samples were mixed with acetonitrile containing internal standard and centrifuged at 3200×g for 10 minutes. Then 200 μL of supernatant was taken from all samples. For TEST COMPOUND and digoxin, the supernatant was diluted with 200 μL of ultra-pure water and for nadolol and metoprolol, the supernatant was diluted with 600 μL of ultra-pure water. All samples were analyzed by LC-MS/MS. Concentrations of TEST COMPOUND and control compounds were determined in starting solutions, donor well solutions, and receiver well solutions using peak area ratios (PAR) of analyte to internal standard. After the transport assay, a lucifer yellow rejection assay was run to determine the Caco-2 cell monolayer integrity.
The apparent permeability (Papp), the % recovery and the efflux ratio were calculated as follows:
Papp=(dCr/dt)×Vr/(A×C0) 1.
Efflux Ratio=Papp(BA)/Papp(AB) 3. • Where: • dCr/dt is the slope of the cumulative concentration in the receiver compartment versus time (mM/s). • Vr and Vd is the volume in the receiver and donor compartments (0.075 mL on the apical side, 0.25 mL on the basolateral side), respectively. • A is the surface area of the cell monolayer (0.0804 cm^2). • C0 is the measured donor concentrations (μM) at the beginning of the experiment. • Cd and Cr are the final measured concentrations in the donor and receiver compartments, respectively.

T1 sequence (Q5S007 1879-2138 limits assumed): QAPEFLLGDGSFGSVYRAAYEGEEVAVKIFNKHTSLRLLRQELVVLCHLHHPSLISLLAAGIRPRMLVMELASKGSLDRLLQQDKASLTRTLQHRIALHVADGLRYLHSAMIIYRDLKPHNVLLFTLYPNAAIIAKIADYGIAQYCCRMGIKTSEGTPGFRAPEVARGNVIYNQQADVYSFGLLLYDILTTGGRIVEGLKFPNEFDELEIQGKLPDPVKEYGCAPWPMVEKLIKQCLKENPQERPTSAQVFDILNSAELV

[2H]C1([2H])OC([2H])([2H])C([2H])([2H])N(c2cc3c(cn2)NC(c2c(F)cccc2F)=Nc2c(Cl)n[nH]c2-3)C1([2H])[2H] [Example 25, 4-[5-chloro-8-(2,6-difluorophenyl)-3,4,7,9,12-pentazatricyclo[8.4.0.02,6]tetradeca-1(10),2(6),4,7,11,13-hexaen-13-yl]-2,2,3,3,5,5,6,6-octadeuterio-morpholine]
hHep Cl (mL/min/kg) (human hepatocyte): L (L (Low Cl)”: Hep Cl (mL/min/kg)<6.3)
IC50 [1]: < 1 nM
Caco-2 ER (Caco-2 cells): L (L (Likely)”: ER≥2.5)
Caco-2 A2B (10^−6 cm/s) (Caco-2 cells): M (M (Moderate permeability)”: 1≤A2B (B2A)≤5)
Caco-2 B2A (10^−6 cm/s) (Caco-2 cells): H (H (High permeability)”: A2B (B2A)>5)

Cc1n[nH]c2c1N=C(c1c(F)cccc1F)Nc1cnc(-c3cn[nH]c3)cc1-2 [Example 29, 8-(2,6-difluorophenyl)-5-methyl-13-(1H-pyrazol-4-y1)-3,4,7,9,12-pentazatricyclo[8.4.0.02,6]tetradeca-1(10),2(6),4,7,11,13-hexaene]
hHep Cl (mL/min/kg) (human hepatocyte): L (L (Low Cl)”: Hep Cl (mL/min/kg)<6.3)
IC50 [1]: < 1 nM
Caco-2 ER (Caco-2 cells): L (L (Likely)”: ER≥2.5)
Caco-2 A2B (10^−6 cm/s) (Caco-2 cells): L (L (Low permeability)”: A2B (B2A)<1)
Caco-2 B2A (10^−6 cm/s) (Caco-2 cells): H (H (High permeability)”: A2B (B2A)>5)

Fc1cccc(F)c1C1=Nc2c(Cl)n[nH]c2-c2cc(-c3ccn(CC(F)F)n3)ncc2N1 [Example 30, (3-chloro-9-(1-(2,2-difluoroethyl)-1H-pyrazol-3-yl)-5-(2,6-difluorophenyl)-1,6-dihydropyrazolo[4,3-d]pyrido[4,3-f][1,3]diazepine)]
hHep Cl (mL/min/kg) (human hepatocyte): I (I (Intermediate Cl)”: 6.3≤Hep Cl (mL/min/kg)≤14.7)
IC50 [1]: < 1 nM
Caco-2 ER (Caco-2 cells): L (L (Likely)”: ER≥2.5)
Caco-2 A2B (10^−6 cm/s) (Caco-2 cells): M (M (Moderate permeability)”: 1≤A2B (B2A)≤5)
Caco-2 B2A (10^−6 cm/s) (Caco-2 cells): H (H (High permeability)”: A2B (B2A)>5)

COC1(C#Cc2cc3c(cn2)NC(c2c(F)cccc2F)=Nc2c(C)n[nH]c2-3)CCOCC1 [Example 31, 8-(2,6-difluorophenyl)-13-[2-(4-methoxytetrahydropyran-4-y1)ethynyl]-5-methyl-3,4,7,9,12-pentazatricyclo[8.4.0.02,6]tetradeca-1(10),2(6),4,7,11,13-hexaene]
hHep Cl (mL/min/kg) (human hepatocyte): I (I (Intermediate Cl)”: 6.3≤Hep Cl (mL/min/kg)≤14.7)
IC50 [1]: < 1 nM
Caco-2 ER (Caco-2 cells): L (L (Likely)”: ER≥2.5)
Caco-2 A2B (10^−6 cm/s) (Caco-2 cells): M (M (Moderate permeability)”: 1≤A2B (B2A)≤5)
Caco-2 B2A (10^−6 cm/s) (Caco-2 cells): H (H (High permeability)”: A2B (B2A)>5)

Cc1n[nH]c2c1N=C(c1c(F)cccc1F)Nc1c-2cc(N2CCC(O)CC2)nc1C [Example 40, 1-(5-(2,6-difluorophenyl)-3,7-dimethyl-1,6-dihydropyrazolo[4,3-d]pyrido[4,3-f][1,3]diazepin-9-yl)piperidin-4-ol]
hHep Cl (mL/min/kg) (human hepatocyte): I (I (Intermediate Cl)”: 6.3≤Hep Cl (mL/min/kg)≤14.7)
IC50 [1]: < 1 nM
Caco-2 ER (Caco-2 cells): L (L (Likely)”: ER≥2.5)
Caco-2 A2B (10^−6 cm/s) (Caco-2 cells): M (M (Moderate permeability)”: 1≤A2B (B2A)≤5)
Caco-2 B2A (10^−6 cm/s) (Caco-2 cells): H (H (High permeability)”: A2B (B2A)>5)

Cc1n[nH]c2c1N=C(c1c(F)cccc1F)Nc1c-2cc(N2CCN(S(C)(=O)=O)CC2)nc1C [Example 44, 5-(2,6-difluorophenyl)-3,7-dimethyl-9-(4-(methylsulfonyl)piperazin-1-yl)-1,6-dihydropyrazolo[4,3-d]pyrido[4,3-f][1,3]diazepine]
hHep Cl (mL/min/kg) (human hepatocyte): L (L (Low Cl)”: Hep Cl (mL/min/kg)<6.3)
IC50 [1]: < 1 nM
Caco-2 ER (Caco-2 cells): L (L (Likely)”: ER≥2.5)
Caco-2 A2B (10^−6 cm/s) (Caco-2 cells): L (L (Low permeability)”: A2B (B2A)<1)
Caco-2 B2A (10^−6 cm/s) (Caco-2 cells): H (H (High permeability)”: A2B (B2A)>5)

Cc1nc(N2CCC[C@@H](C#N)C2)cc2c1NC(c1c(F)cccc1F)=Nc1cn[nH]c1-2 [Example 47, (R)-1-(5-(2,6-difluorophenyl)-7-methyl-1,6-dihydropyrazolo[4,3-d]pyrido[4,3-f][1,3]diazepin-9-y1)piperidine-3-carbonitrile]
hHep Cl (mL/min/kg) (human hepatocyte): H (H (High Cl)”: Hep Cl (mL/min/kg)>14.7)
IC50 [1]: < 1 nM
Caco-2 ER (Caco-2 cells): L (L (Likely)”: ER≥2.5)
Caco-2 A2B (10^−6 cm/s) (Caco-2 cells): M (M (Moderate permeability)”: 1≤A2B (B2A)≤5)
Caco-2 B2A (10^−6 cm/s) (Caco-2 cells): H (H (High permeability)”: A2B (B2A)>5)

Cc1n[nH]c2c1N=C(c1c(F)cccc1F)Nc1cnc(N3CC[C@@H](C#N)C3)cc1-2 [Example 49, (R)-1-(5-(2,6-difluorophenyl)-3-methyl-1,6-dihydropyrazolo[4,3-d]pyrido[4,3-f][1,3]diazepin-9-y1)pyrrolidine-3-carbonitrile]
hHep Cl (mL/min/kg) (human hepatocyte): I (I (Intermediate Cl)”: 6.3≤Hep Cl (mL/min/kg)≤14.7)
IC50 [1]: 1 to 100 nM
Caco-2 ER (Caco-2 cells): L (L (Likely)”: ER≥2.5)
Caco-2 A2B (10^−6 cm/s) (Caco-2 cells): M (M (Moderate permeability)”: 1≤A2B (B2A)≤5)
Caco-2 B2A (10^−6 cm/s) (Caco-2 cells): H (H (High permeability)”: A2B (B2A)>5)

Cc1n[nH]c2c1N=C(c1c(F)ccc(CO)c1F)Nc1cnc(N3CCOCC3)cc1-2 [Example 50, (2,4-difluoro-3-(3-methyl-9-morpholino-1,6-dihydropyrazolo[4,3-d]pyrido[4,3-f][1,3]diazepin-5-yl)phenyl)methanol]
hHep Cl (mL/min/kg) (human hepatocyte): L (L (Low Cl)”: Hep Cl (mL/min/kg)<6.3)
IC50 [1]: 1 to 100 nM
Caco-2 ER (Caco-2 cells): L (L (Likely)”: ER≥2.5)
Caco-2 A2B (10^−6 cm/s) (Caco-2 cells): L (L (Low permeability)”: A2B (B2A)<1)
Caco-2 B2A (10^−6 cm/s) (Caco-2 cells): H (H (High permeability)”: A2B (B2A)>5)
